The subject of series [1] is Trichophyton tonsuran. The series is described as follows: Agar dilution method, growth on Sabouraud dextrose agar slants. The format is cell-based, Trichophyton tonsurans. As to conditions: 12th day after inoculation. The arrangement: key: +++: Maximum Fungal Growth; ++: Moderate Fungal Growth; +: Minimum Fungal Growth; +/−: Very little Fungal Growth; −: No Fungal Growth. The gist of the method:
(§1)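 SDA slants containing test compound (added from DMSO solution into 45 °C agar); inoculated with fungal culture; 25-28 °C, 10-12 d; growth read every 2nd day.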

In series [2] the test system is Pityrosporum ovale. Put plainly: Direct addition into the Pityrosporum agar. The arrangement: key to Pityrosporum ovale growth: +++: Maximum Growth; ++: Moderate Growth; +: Minimum Growth; +/−: Very Little Growth; −: No Growth. The format is cell-based. To be noted: for Growth inhibition of Pityrosporum ovale by the direct addition method: 4 mg/ml; for Pityrosporum ovale growth: 4 mg/ml in the agar, 18 hours after inoculation. The procedure:
Direct addition method. Sabouraud dextrose agar was prepared according to the manufacturer's instructions and 5.0 ml was dispensed in each 100×25 mm tube. The tubes were autoclaved. To each tube containing 5.0 ml of liquid agar at 45° C., 20 mg of solid test compound was added, to give a final concentration of 4 mg/ml. The agar was solidified in slants. The fungal cultures were then innoculated. […]

Series [3] has as its system Microsporum audouinni. Put plainly: Agar dilution method, growth on Sabouraud dextrose agar slants. The format is cell-based, Microsporum audouinii. Set-up: key: +++: Maximum Fungal Growth; ++: Moderate Fungal Growth; +: Minimum Fungal Growth; +/−: Very little Fungal Growth; −: No Fungal Growth. As to conditions: 12th day after inoculation. The method, boiled down: as §1
Background: In agar dilution, organisms are placed on agar that contains the substance at set levels.

For series [4], the system named is Trichophyton mentagrophyte. The series is described as above. As to conditions: 12th day after inoculation. The format is cell-based, Trichophyton mentagrophytes. Set-up: key to Fungal growth: +++: Maximum Fungal Growth; ++: Moderate Fungal Growth; +: Minimum Fungal Growth; +/−: Very little Fungal Growth; −: No Fungal Growth. The gist of the method:
as §1

The subject of series [5] is Microsporum audouinni. Put plainly: Direct addition method, solid compound in Sabouraud dextrose agar. To be noted: for Fungal growth: 4 mg/mL of agar, 12th day after inoculation. The format is cell-based, Microsporum audouinii. The arrangement: key to Fungal growth: +++: Maximum Fungal Growth; ++: Moderate Fungal Growth; +: Minimum Fungal Growth; +/−: Very little Fungal Growth; −: No Fungal Growth. The gist of the method:
(§2)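 Fungal growth read at day 12; scored every 2nd day over 10-12 days at 25-28° C. Compound added as solid to molten Sabouraud dextrose agar (45° C.), final 4 mg/ml; agar slanted, then inoculated.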

For series [6], the system named is Microsporum audouinii. Put plainly: Summary of anti-fungal assays (direct addition, agar dilution, liquid culture). As to conditions: stated in words (Tables 1a/1b, text to Table 5). Format: cell-based. The method, then:
(§3) This example summarizes the results of various other assays of the anti-fungal activity of betulin derivatives. Table 5 summarizes results using different assay methods—direct addition, agar dilution, and direct addition to liquid culture, as disclosed in the previous three Examples. In some cases, only one type of assay was done with a compound. In other cases, the compound was tested by multiple assays.

Series [7] relates to Trichophyton rubrum. Put plainly: Direct addition method, solid compound in Sabouraud dextrose agar. Format: cell-based. Set-up: key: +++: Maximum Fungal Growth; ++: Moderate Fungal Growth; +: Minimum Fungal Growth; +/−: Very little Fungal Growth; −: No Fungal Growth. To be noted: 4 mg/mL of agar; 12th day after inoculation. The method, boiled down:
as §2

The subject of series [8] is Pityrosporum ovale. The series is described as above. The format is cell-based. Set-up: key: +++: Maximum Fungal Growth; ++: Moderate Fungal Growth; +: Minimum Fungal Growth; +/−: Very little Fungal Growth; −: No Fungal Growth. To be noted: 4 mg/mL of agar; 12th day after inoculation. The gist of the method:
as §2

The subject of series [9] is Epidermophyton floccosum. The description is as above. The arrangement: key: +++: Maximum Fungal Growth; ++: Moderate Fungal Growth; +: Minimum Fungal Growth; +/−: Very little Fungal Growth; −: No Fungal Growth. Format: cell-based. To be noted: 4 mg/mL of agar; 12th day after inoculation. The method, boiled down:
as §2

For series [10], the system named is Microsporum canis. Described as above. The arrangement: key: +++: Maximum Fungal Growth; ++: Moderate Fungal Growth; +: Minimum Fungal Growth; +/−: Very little Fungal Growth; −: No Fungal Growth. The format is cell-based. To be noted: 4 mg/mL of agar; 12th day after inoculation. The method, boiled down: as §2
For series [11], the system named is Epidermophyton floccosum. Put plainly: Agar dilution method, growth on Sabouraud dextrose agar slants. The format is cell-based. The arrangement: key to Fungal growth: +++: Maximum Fungal Growth; ++: Moderate Fungal Growth; +: Minimum Fungal Growth; +/−: Very little Fungal Growth; −: No Fungal Growth. To be noted: 12th day after inoculation. The method, boiled down:
as §1

The subject of series [12] is P. ovale. Put plainly: Summary of anti-fungal assays (direct addition, agar dilution, liquid culture). To be noted: stated in words (Tables 1a/1b, text to Table 5). Format: cell-based, Pityrosporum ovale. The procedure: as §3
The test system of series [13] is Trichophyton rubrum. Put plainly: Agar dilution method, growth on Sabouraud dextrose agar slants. Format: cell-based. The arrangement: key: +++: Maximum Fungal Growth; ++: Moderate Fungal Growth; +: Minimum Fungal Growth; +/−: Very little Fungal Growth; −: No Fungal Growth. As to conditions: 12th day after inoculation. The gist of the method:
as §1

Series [14] relates to Pityrosporum ovale. Described as above. Format: cell-based. The arrangement: key: +++: Maximum Fungal Growth; ++: Moderate Fungal Growth; +: Minimum Fungal Growth; +/−: Very little Fungal Growth; −: No Fungal Growth. As to conditions: 12th day after inoculation. The method, boiled down: as §1
Series [15] relates to Microsporum gypseum. Described as above. Format: cell-based. Set-up: key: +++: Maximum Fungal Growth; ++: Moderate Fungal Growth; +: Minimum Fungal Growth; +/−: Very little Fungal Growth; −: No Fungal Growth. As to conditions: 12th day after inoculation. The method, boiled down:
as §1

For series [16], the system named is Microsporum canis. The series is described as above. Format: cell-based. Set-up: key: +++: Maximum Fungal Growth; ++: Moderate Fungal Growth; +: Minimum Fungal Growth; +/−: Very little Fungal Growth; −: No Fungal Growth. As to conditions: 12th day after inoculation. The method, boiled down: as §1
For series [17], the system named is Trichophyton rubrum. The series is described as follows: Summary of anti-fungal assays (direct addition, agar dilution, liquid culture). The format is cell-based. As to conditions: stated in words (Tables 1a/1b, text to Table 5). The procedure: as §3
In series [18] the test system is Trichophyton mentagrophytes. Described as above. The format is cell-based. To be noted: stated in words (Tables 1a/1b, text to Table 5). The procedure:
as §3

The subject of series [19] is Epidermophyton floccosum. The series is described as above. The format is cell-based. To be noted: stated in words (Tables 1a/1b, text to Table 5). The procedure: as §3
The subject of series [20] is Trichophyton tonsurans. The series is described as above. The format is cell-based. As to conditions: stated in words (Tables 1a/1b, text to Table 5). The procedure:
as §3

This note sets out measurements from patent US6642217B2, “Triterpenes having human antifungal and antiyeast activity” (Naturtek, LLC, priority 2000, dated 2003).

Molecules are shown by their SMILES.

With `C=C(C)[C@@H]1CCC2(CO)CC[C@@]3(C)C(CCC4[C@@]5(C)C=C(O)C(=O)C(C)(C)C5CC[C@]43C)C12` (stereo partly drawn), the melting point (commonly the temperature, or range, at which the solid turns liquid) was 167 to 170 °C (dec.).
Take `CC1(C)CCC23CC[C@@]4(C)C(CCC5[C@@]6(C)CC[C@H](O)C(C)(C)C6CC[C@]54C)C2C1OC3` (stereo partly drawn) [Allobetulin, oleanan-3β-ol-28,19-β-ether]: the Fungal growth entry in [1] (9 μg/ml) is “+++”; in series [1] (19 μg/ml) it was “++”; in [1] (38 μg/ml) it was “++”; in series [1] (75 μg/ml), “−”; in series [3] (9 μg/ml), “+/−”; in [3] (19 μg/ml), “−”. Also, the Fungal growth entry is given as “−” in series [3] (38 μg/ml); “−” in series [3] (75 μg/ml); “++” in series [4] (9 μg/ml); “+” in series [4] (19 μg/ml); “+” in series [4] (38 μg/ml); “−” in series [4] (75 μg/ml). Also, the Fungal growth entry in [5] is listed as “+”; in series [7] it was “+”; in series [8], “−”; in series [9], “−”; in series [10] it was “++”; in [11] (9 μg/ml), “++”. Besides, the Fungal growth entry in series [11] (19 μg/ml) is on record as “+”; in series [11] (38 μg/ml), “+”; in [11] (75 μg/ml), “−”; in [13] (9 μg/ml), “++”; in series [13] (19 μg/ml) it was “++”; in series [13] (38 μg/ml), “+”. Further, the Fungal growth entry is “−” in series [13] (75 μg/ml); “+++” in series [14] (9 μg/ml); “+++” in [14] (19 μg/ml); “++” in series [14] (38 μg/ml); “−” in series [14] (75 μg/ml); “+++” in series [15] (9 μg/ml). The Fungal growth entry was “++” in [15] (19 μg/ml); “++” in series [15] (38 μg/ml); “−” in [15] (75 μg/ml); “+++” in [16] (9 μg/ml); “++” in series [16] (19 μg/ml); “++” in series [16] (38 μg/ml). Moreover, in series [16] (75 μg/ml), the Fungal growth result was “−”. In addition, the “Growth inhibition of Pityrosporum ovale by the direct addition method” value (shortened to “Growth inhibition of Pityrosporum ovale”) in series [2] was “inhibited the growth”. In addition, in series [2], the Pityrosporum ovale growth entry is “+/−”. Besides, in series [6], the “Active against Microsporum audouinii” value is “Microsporum audouinii”. For the same compound, the “Active against Pityrosporum ovale” value in series [12] was “Pityrosporum ovale”.
For the compound `CC(C)C(N)C(=O)OC1CCC2(C)C(CCC3(C)C2CCC2C4C5OCC4(CCC5(C)C)CCC23C)C1(C)C` [Allobetulin-3-L-valine], the “Growth inhibition of Pityrosporum ovale” value in [2] is reported as “inhibited the growth”. For the same compound, the Pityrosporum ovale growth entry in series [2] is “+”. The Fungal growth entry in series [5] is listed as “−”; in series [7], “+”; in series [8] it was “−”; in [9] it was “−”; in series [10], “+”. For the same compound, the “best anti-fungal or anti-yeast activity by the direct addition method” value in series [5] (against Microsporum audouinii) is given as “against Microsporum audouinii”. In addition, the “Active against Microsporum audouinii” value in series [6] was “Microsporum audouinii”. Also, in series [12], the “Active against Pityrosporum ovale” value is recorded as “Pityrosporum ovale”.
`CC(=O)OC1CC[C@@]2(C)C(CC[C@]3(C)C2CCC2C4C5OC(=O)C4(CCC5(C)C)CC[C@@]23C)C1(C)C` (stereo partly drawn) [Allobetulinlactone-3-acetate, oleanan-28,19-β-lactone-3-acetate]: the melting point was 312.5 to 315.4 °C (dec.).
For the compound `C=C(C)C1CCC2(COC(=O)CC(C)(C)CC(=O)O)CCC3(C)C(CCC4C5(C)CCC(OC(=O)CC(C)(C)CC(=O)O)C(C)(C)C5CCC43C)C12` (stereo not drawn) [Betulin-3,28-di(3′,3′-dimethyl)glutarate], in [17], the “Active against Trichophyton rubrum” value is given as “Trichophyton rubrum,”. Also, the “Active against Microsporum audouinii” value in series [6] was “Microsporum audouinii,”. For the same compound, the “Active against Trichophyton mentagrophytes” value in [18] was “Trichophyton mentagrophytes,”. In addition, the “Active against Epidermophyton floccosum” value in series [19] is reported as “against Epidermophyton floccosum”.
Regarding `C=C(C)C1CCC2(COC(=O)CCCC(=O)O)CCC3(C)C(CCC4C5(C)CCC(O)C(C)(C)C5CCC43C)C12` (stereo not drawn) [Betulin-28-glutarate], in series [2], the “Growth inhibition of Pityrosporum ovale” value was “inhibited the growth”. For the same compound, in series [2], the Pityrosporum ovale growth entry was “+/−”. For the same compound, the Fungal growth result in [5] is reported as “+”; in series [7], “+”; in series [8] it was “−”; in series [9], “−”; in series [10], “+”. For the same compound, in [17], the “Active against Trichophyton rubrum” value is listed as “Trichophyton rubrum,”. Moreover, the “Active against Trichophyton mentagrophytes” value in [18] is reported as “Trichophyton mentagrophytes,”. For the same compound, in series [19] (listed as betulin-28-glutarate), the “Active against Epidermophyton floccosum” value was “against Epidermophyton floccosum”. The “Active against Trichophyton tonsurans” value in [20] is on record as “Trichophyton tonsurans,”. Besides, the “Active against Pityrosporum ovale” value in series [12] is on record as “Pityrosporum ovale,”.
